From patent publication US20080207522A1, “Antimicrobial Peptides” (priority 2004, published 2008)

Key:
[1] = system: Pseudomonas aeruginosa strain H1001; experiment: Assay for the cleaved (free, soluble) peptides from cellulose support, luminescence killing assay; format: cell-based; parameters: key: 1: Peptides showing stronger killing than Bac2A at a 4 to 8-fold higher dilution; Peptides showing stronger killing compared to that of Bac2A at a 4-fold higher dilution; 3: Peptides similar to Bac2A; 4: Peptides similar to Bac2A at the highest concentration but demonstrating weaker killing at a 2-fold dilution; 5: Peptides giving very weak or no killing at a 2-fold dilution; 6: Peptides with weak killing activity at the highest concentration; details: free (cleaved) peptides, killing relative to Bac2A
Description: Assay for the cleaved peptides from cellulose support. The peptides were cleaved from the dried membrane in an ammonia atmosphere overnight, resulting in free peptides with an amidated C-terminus. The free peptides contained two β-alanines at the C-terminus, in addition to being amidated due to the linker between the cellulose membrane and the peptide sequence. The peptide spots were punched out and transferred in a 96-well microtiter plate. Serial dilutions were carried out from the membrane spots. Four rows were filled with four controls including two with Bac2A and two with of an unrelated peptide. The other eight rows were used for serial dilution steps of the peptide variants. An overnight culture of Pseudomonas aeruginosa strain H1001 was diluted 1:500 using either LB media or 100 mM Tris buffer pH 7.3, 20 mM glucose and was added to the wells (100 μl/well) containing the peptide spots. In all other wells 50 μl were added. The microtiter plate was incubated for 30 min at 37° C. to release the peptides from the membrane. Subsequently, a dilution series were performed and the plate was incubated at 37° C. The luminescence produced by the ATP dependent luciferase system were detected in a time dependent manner using a Tecan Spectra Fluor plus.
(§1) Strains. For the killing assay a mini-Tn5-lux mutant in Pseudomonas aeruginosa H103 was used. The strain is called H1001 and contains a fliC::luxCDABE transcriptional fusion resulting in constitutive expression of luciferase. The bacterial strains used for the antimicrobial activity assays included Escherichia coli UB1005 (F-, nalA37, metB1), a wild-type Salmonella enterica ssp. Typhimurium (S. Typhimurium), wild-type Pseudomonas aeruginosa PAO1 strain H103, Enterococcus faecalis ATCC29212, Staphylococcus aureus ATCC25923, and a clinical isolate of Staphylococcus epidermidis obtained from Dr. D. Speert (Department of Medicine, University of British Columbia). Antifungal activity was tested using a lab isolate of Candida albicans obtained from Dr. B. Dill (Department of Microbiology and Immunology, University of British Columbia).
Peptide synthesis on cellulose is a very effective and inexpensive way to investigate many different peptide variants for one particular activity. However, one of the problems of this technique is the low peptide density synthesized on the membrane, about 280 nmol per cm2. An average peptide spot used for the experiments presented is about 0.3 cm2. Therefore, an assay had to be developed that was sensitive enough to show activity with this amount of peptides. P. aeruginosa H1001 has a reporter system (e.g., a luciferase gene cassette) incorporated into the bacterial chromosome in the fliC gene (involved in flagellar biosynthesis) that is constitutively expressed. It will thus produce light if ATP is present. When this strain is killed, e.g. by peptides, the amount of light produced will decrease due to a decrease in ATP levels in the killed cells. This action can thus be monitored by detecting luminescence in a microtiter plate luminescence reader over time. The volume and amount of cells per well were optimized for this assay. After screening, the killing action was monitored with small amounts of the parent peptide Bac2A (2 μg/ml of free peptide).
Forty-nine scrambled peptides (Bac002-Bac050) were synthesized on the cellulose support and then cleaved by ammonia gas resulting in free peptides with an amidated C-terminus including the linker. The peptide spots were transferred to a 96-well microtiter plate and incubated for 30 min to dissociate the peptides from the cellulose. After serial dilution and addition of strain H1001, luminescence was recorded in a time dependent manner (FIG. 1). All 50 scrambled peptides were compared to Bac2A ([…]-NH2; SEQ ID NO: 1) by this assay (see Table 2). […] Further since all scrambled peptides had some activity, a sequence-specific interaction of the peptides with a receptor or target could be excluded.

[2] = system: Pseudomonas aeruginosa strain H1001 fliC::luxCDABE; experiment: Luminescence-based assay for the non-cleaved (bound) peptides on cellulose membranes; format: cell-based; details: for Luminescence at the given time in minutes: 0 / Luminescence at the given time in minutes: 20 / Luminescence at the given time in minutes: 40 / Luminescence at the given time in minutes: 60 / Luminescence at the given time in minutes: 80 / Luminescence at the given time in minutes: 100 / Luminescence at the given time in minutes: 120 / Luminescence at the given time in minutes: 180 / Luminescence at the given time in minutes: 240: cellulose-bound peptide; for Luminescence at the given time in minutes: 0: 0 min; for Luminescence at the given time in minutes: 20: 20 min; for Luminescence at the given time in minutes: 40: 40 min; for Luminescence at the given time in minutes: 60: 60 min; for Luminescence at the given time in minutes: 80: 80 min; for Luminescence at the given time in minutes: 100: 100 min; for Luminescence at the given time in minutes: 120: 120 min; for Luminescence at the given time in minutes: 180: 180 min; for Luminescence at the given time in minutes: 240: 240 min; for Activity Class bound: uncleaved cellulose-bound peptides
Description: Luminescence-based MIC assay for the non-cleaved peptides on cellulose membranes. The peptide spots were punched out and transferred to a 96 well microtiter plate with a clear polystyrene bottom and opaque white polypropylene sides (PerkinElmer, Boston, USA). The spots were washed two times with 100% ethanol for 5 min and afterwards equilibrated five times with 100 mM Tris buffer pH 7.3 for 5 min. An overnight culture of Pseudomonas aeruginosa strain H1001 fliC::luxCDABE was diluted 1:50 in new MH medium and incubated at 37° C. to an OD600 of 0.35. This bacterial culture was diluted 1:25 into 10 mM Tris-HCl buffer, pH 7.3 containing 20 mM glucose. Fifty μl of this culture was added to all wells of the microtiter plate and incubated at 37° C. The luminescence of the strain produced by the ATP-dependent luciferase system was detected in a time dependent manner using a Tecan Spectra Fluor plus (Tecan, Austria). At the end of the experiment, the membranes were cleaned by washing the spots two times with 100% ethanol for five minutes. After removing the ethanol the membrane was air-dried.
as §1
The same set of peptides, as well as the reversed sequence of Bac2A-R ([…]; SEQ ID NO: 2166), were synthesized on cellulose and left uncleaved. The production of light was initially compared in wells containing spots of Bac2A, Bac2A-R (with the reversed sequence of Bac2A), the unrelated negative-control peptide, or, as additional controls, only cellulose, or only bacteria (FIG. 2).
As a control, the negative control (unrelated) peptide Bac429 and parent peptide Bac2A (=Bac001) were used in several different wells of the microtiter plate. Luminescence (relative light units; RLU) was measured at 14 different time points, 9 of which are shown. To permit comparison of the data with the free peptide data set, the result for each peptide was classified into six different groups, like the data set with the free peptides (Table 2). […] For the soluble peptides the following classes were established: […]

| Sequence | Activity Class Soluble [1] | Luminescence at the given time in minutes: 0 [2] [RLU] | Luminescence at the given time in minutes: 20 [2] [RLU] | Luminescence at the given time in minutes: 40 [2] [RLU] | Luminescence at the given time in minutes: 60 [2] [RLU] | Luminescence at the given time in minutes: 80 [2] [RLU] | Luminescence at the given time in minutes: 100 [2] [RLU] | Luminescence at the given time in minutes: 120 [2] [RLU] | Luminescence at the given time in minutes: 180 [2] [RLU] | Luminescence at the given time in minutes: 240 [2] [RLU] | Activity Class bound [2] |
| --- | --- | --- | --- | --- | --- | --- | --- | --- | --- | --- | --- |
| IVRVAVALRRIR [Bac005] | 3 | 3853 | 6844 | 5163 | 4287 | 3443 | 2254 | 1891 | 1665 | 1791 | 5 (Peptides reducing luminescence (lux) values to between 1500 to 3000 after 240 min.) |
| LAIVRRARVRIV [Bac031] | 5 | 4646 | 7357 | 5808 | 5146 | 4145 | 3815 | 3472 | 3130 | 3247 | 6 (Peptides having residual luminescence (lux) values greater than 3000 after 240 min.) |
| RAIIRRVLVRVA [Bac024] | 4 | 4164 | 7630 | 5586 | 4358 | 3256 | 2398 | 1727 | 1384 | 1373 | 4 (Peptides reducing luminescence (lux) values to between 500 to 1499 after 240 min.) |
| RAIRVRRIVLAV [Bac037] | 4 | 4908 | 6480 | 4105 | 1624 | 366 | 120 | 54 | 59 | 46 | 3 (Peptides similar to Bac2A resulting in lux values of less than 500 after 240 min.) |
| RARIVRVRVILA [Bac016] | 2 | 4172 | 6362 | 2916 | 678 | 142 | 80 | 60 | 68 | 22 | 3 (Peptides similar to Bac2A resulting in lux values of less than 500 after 240 min.) |
| RARRVRVLIAIV [Bac036] | 4 | 5208 | 7062 | 5114 | 3233 | 1182 | 394 | 215 | 129 | 107 | 3 (Peptides similar to Bac2A resulting in lux values of less than 500 after 240 min.) |
| RIVLRRAAVIRV [Bac039] | 5 | 4727 | 7074 | 5814 | 5262 | 4994 | 4717 | 4569 | 4524 | 5392 | 6 (Peptides having residual luminescence (lux) values greater than 3000 after 240 min.) |
| RLRVAIVAIVRR [Bac041] | 4 | 4620 | 5674 | 615 | 54 | 68 | 37 | 77 | 53 | 37 | 2 (Peptides reducing lux values to between 500 and 1000 after 40 min.) |
| RRIARVIVAVLR [Bac002] | 3 | 4340 | 6090 | 1631 | 135 | 58 | 48 | 35 | 59 | 48 | 3 (Peptides similar to Bac2A resulting in lux values of less than 500 after 240 min.) |
| RRLVAIVAVRRI [Bac007] | 4 | 3943 | 7157 | 4403 | 2010 | 679 | 205 | 90 | 89 | 79 | 3 (Peptides similar to Bac2A resulting in lux values of less than 500 after 240 min.) |
